# Laboratory results published in the supplement of paper PMC4862054.
# Key:
# Details in all cases: incubation time: 72 h
# BT-549 [1] = test: normalised response (% of control), CellTiter-Glo; higher = more viable cells (100 = DMSO, 0 = benzethonium chloride kill control)
# Protocol: (§1)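 DSRT, 72 h incubation, CellTox Green / CellTiter-Glo readout. Signal is normalised to DMSO and benzethonium chloride controls. Value is the normalised response at dose 3.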
# HDQ-P1 [2] = test: as above
# Protocol: as §1
# SK-BR-3 = test: as above
# Protocol: as §1
# MDA-MB-468 [3] = test: as above
# Protocol: as §1
# CAL-120 [4] = test: as above
# Protocol: as §1
# HCC1143 [5] = test: as above
# Protocol: as §1
# MCF-10A [6] = test: as above
# Protocol: as §1
# HCC1599 [7] = test: as above
# Protocol: as §1
# DU-4475 [8] = test: as above
# Protocol: as §1
# MFM-223 [9] = test: as above
# Protocol: as §1
# MDA-MB-231 [10] = test: as above
# Protocol: as §1
# CAL-51 [11] = test: as above
# Protocol: as §1
# HCC1937 [12] = test: as above
# Protocol: as §1
# MDA-MB-453 [13] = test: as above
# Protocol: as §1
# Hs578T [14] = test: as above
# Protocol: as §1
# CAL-148 [15] = test: as above
# Protocol: as §1
# CAL-85-1 [16] = test: as above
# Protocol: as §1
# MDA-MB-436 [17] = test: as above
# Protocol: as §1
# BT-474 [18] = test: as above
# Protocol: as §1
# BT-549 [19] = test: normalised response (% of control), CellTox Green; higher = less cell death (100 = DMSO, 0 = benzethonium chloride kill control)
# How it was run: (§2)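 The table gives the normalised signal for a single concentration in each entry. Breast cancer cell lines were seeded (20 µl suspension) into 384-well plates holding compound at 5 concentrations in 10-fold steps over a compound-specific 10,000-fold range and incubated 72 h, then read for CellTox Green fluorescence (485/520 nm) and CellTiter-Glo luminescence. Normalisation on each plate used 0.1 % DMSO (100) and a positive kill control (0).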
# HDQ-P1 [20] = test: as above
# How it was run: as §2
# MDA-MB-468 [21] = test: as above
# How it was run: as §2
# CAL-120 [22] = test: as above
# How it was run: as §2
# HCC1143 [23] = test: as above
# How it was run: as §2
# HCC1599 [24] = test: as above
# How it was run: as §2
# DU-4475 [25] = test: as above
# How it was run: as §2
# MFM-223 [26] = test: as above
# How it was run: as §2
# MDA-MB-231 [27] = test: as above
# How it was run: as §2
# CAL-51 [28] = test: as above
# How it was run: as §2
# HCC1937 [29] = test: as above
# How it was run: as §2
# MDA-MB-453 [30] = test: as above
# How it was run: as §2
# Hs578T [31] = test: as above
# How it was run: as §2
# CAL-148 [32] = test: as above
# How it was run: as §2
# CAL-85-1 [33] = test: as above
# How it was run: as §2
# MDA-MB-436 [34] = test: as above
# How it was run: as §2
# BT-474 [35] = test: as above
# How it was run: as §2
# MCF-10A [36] = test: as above
# How it was run: as §2
SMILES,normalised response (BT-549 [1]),normalised response (HDQ-P1 [2]),normalised response (SK-BR-3),normalised response (MDA-MB-468 [3]),normalised response (CAL-120 [4]),normalised response (HCC1143 [5]),normalised response (MCF-10A [6]),normalised response (HCC1599 [7]),normalised response (DU-4475 [8]),normalised response (MFM-223 [9]),normalised response (MDA-MB-231 [10]),normalised response (CAL-51 [11]),normalised response (HCC1937 [12]),normalised response (MDA-MB-453 [13]),normalised response (Hs578T [14]),normalised response (CAL-148 [15]),normalised response (CAL-85-1 [16]),normalised response (MDA-MB-436 [17]),normalised response (BT-474 [18]),normalised response (BT-549 [19]),normalised response (HDQ-P1 [20]),normalised response (MDA-MB-468 [21]),normalised response (CAL-120 [22]),normalised response (HCC1143 [23]),normalised response (HCC1599 [24]),normalised response (DU-4475 [25]),normalised response (MFM-223 [26]),normalised response (MDA-MB-231 [27]),normalised response (CAL-51 [28]),normalised response (HCC1937 [29]),normalised response (MDA-MB-453 [30]),normalised response (Hs578T [31]),normalised response (CAL-148 [32]),normalised response (CAL-85-1 [33]),normalised response (MDA-MB-436 [34]),normalised response (BT-474 [35]),normalised response (MCF-10A [36])
Nc1ccccc1NC(=O)c1ccc(CNC(=O)OCc2cccnc2)cc1 [Entinostat] (100 nM),115%,104%,107%,96.8%,98.2%,103%,108%,96.9%,105%,104%,98.6%,76.1%,94%,103%,102%,104%,112%,102%,94.8%,110%,107%,105%,97.4%,67.2%,96.6%,100%,99.3%,103%,101%,101%,101%,109%,104%,103%,80.2%,100%,
CC(=O)Nc1cccc(-n2c(=O)n(C3CC3)c(=O)c3c(Nc4ccc(I)cc4F)n(C)c(=O)c(C)c32)c1 [Trametinib] (2.5 nM),100%,70.1%,98.4%,93.3%,101%,89.3%,47.4%,99.2%,24.3%,106%,86.5%,112%,86.8%,109%,90.8%,99.1%,97.4%,96.1%,94%,94.2%,98.6%,120%,96.3%,112%,117%,82.8%,72.4%,,117%,117%,103%,89.9%,102%,86.5%,101%,100%,80.7%
CCCS(=O)(=O)Nc1ccc(F)c(C(=O)c2c[nH]c3ncc(-c4ccc(Cl)cc4)cc23)c1F [Vemurafenib] (100 nM),97.9%,94.3%,84.8%,91.7%,93.3%,94.7%,96.8%,95.5%,86.5%,89.4%,93.4%,88.6%,97.7%,79.3%,95.9%,93.9%,91.8%,95.9%,96.9%,94.2%,108%,98.4%,97.7%,82.2%,94%,96.1%,94.2%,,76.9%,92.1%,97.9%,103%,97.3%,102%,72.4%,98.3%,91.9%
CCCCC(=O)OCC(=O)[C@]1(O)Cc2c(O)c3c(c(O)c2[C@@H](O[C@H]2C[C@H](NC(=O)C(F)(F)F)[C@H](O)[C@H](C)O2)C1)C(=O)c1c(OC)cccc1C3=O [Valrubicin] (50 nM),86.2%,102%,94.8%,92.9%,98.4%,104%,101%,91.7%,84%,101%,97.4%,72.7%,97.9%,118%,101%,97%,98.8%,92.2%,98.2%,121%,107%,152%,111%,111%,115%,109%,108%,122%,76.7%,,108%,114%,76.3%,118%,101%,103%,106%
O=C(O)CCCCC(CCSCc1ccccc1)SCc1ccccc1 (stereo not drawn) [CPI-613] (100 nM),105%,99%,104%,102%,98.9%,106%,107%,114%,101%,106%,107%,61.4%,101%,104%,99.6%,108%,96.4%,101%,106%,96.5%,107%,122%,102%,73.1%,95.4%,101%,64.3%,51.4%,75.1%,103%,101%,105%,104%,104%,,93.3%,104%
N#Cc1ccc(C(c2ccc(C#N)cc2)n2cncn2)cc1 [Letrozole] (100 nM),104%,96.7%,102%,94.5%,99.8%,104%,103%,95.9%,102%,106%,101%,104%,94.2%,101%,105%,97.2%,103%,105%,95.5%,96.3%,53.6%,,91.1%,108%,102%,101%,94.5%,79%,103%,83.5%,100%,75.3%,87.3%,114%,,93.5%,105%
Cc1cnc(NC(=O)Nc2cc(Br)c(C)cc2OC[C@@H]2CNCCO2)cn1 [Rabusertib] (10 nM),98.4%,96.3%,110%,108%,109%,104%,107%,106%,104%,104%,109%,91.9%,99.7%,118%,107%,112%,102%,115%,97.6%,95.7%,94.3%,89.4%,102%,,110%,106%,109%,122%,106%,119%,106%,108%,98.4%,95.2%,107%,102%,103%
CC[C@H](Nc1ncnc2[nH]cnc12)c1nc2cccc(F)c2c(=O)n1-c1ccccc1 [GS-1101] (100 nM),95.1%,93.1%,85.2%,86.8%,94.6%,98.5%,84.1%,93%,102%,91.9%,92%,93.3%,90.8%,84.8%,96.8%,96.1%,90.4%,90%,92.7%,105%,105%,103%,102%,107%,94%,97.6%,78%,84.8%,93.3%,87.8%,100%,94%,102%,93.9%,80.1%,93%,
Nc1nc2[nH]cc(CCc3ccc(C(=O)N[C@@H](CCC(=O)O)C(=O)O)cc3)c2c(=O)[nH]1 [Pemetrexed] (100 nM),104%,92.3%,63.2%,80.4%,105%,103%,92.8%,72.1%,95%,95.2%,96.8%,66.6%,75.7%,98.1%,28.8%,93.2%,61%,80.9%,88.6%,96.6%,102%,93%,98%,,91.2%,97.7%,90.4%,87.1%,88.1%,88.5%,104%,103%,99.7%,103%,58.9%,96.2%,103%
